Reference: PMC4911353, “Pharmacologic Inhibition of Host Phosphodiesterase-4 Improves Isoniazid-Mediated Clearance of Mycobacterium tuberculosis” (Frontiers in Immunology, 2016)

Assay: Plasma pharmacokinetics of CC-11050 in mice after a single oral gavage (LC-MS/MS)
Assay type: in vivo
Conditions: for Plasma concentration of CC-11050: mean ± SD
Protocol: The PDE4i, CC-11050 (N-[2-[(1S)-1-(3-ethoxy-4-methoxyphenyl)-2-(methylsulfonyl) ethyl]-2,3-dihydro-3-oxo-1H-isoindol-4-yl]-(9Cl) cyclopropanecarboxamide) has an empirical formula of C24H28N2O6S with one chiral center (Figure S1A in Supplementary Material). Uninfected mice (n = 3 per group) were treated with 5, 25, or 50 mg/kg of CC-11050 by oral gavage. In another experiment, mice (n = 3) were treated with 50 mg/kg of CC-11050 plus 50 mg/kg of INH. A group of mice (n = 3) without treatment were included as negative control. Venous blood was collected at 1, 2, 5, 8, and 24 h after a single gavage administration of CC-11050, with or without INH. Time-matched blood samples were also collected from untreated mice. The animals were gavaged after overnight fasting and fed soon after gavage. Plasma was collected by centrifugation of blood samples at 1,100× g for 10 min at 10°C and used for LC-MS/MS analysis.
The standard curve and quality control for CC-11050 were prepared in mouse plasma diluted 1:1 with Sorenson’s Citrate Buffer (25 mM; pH 1.5). Internal standard was prepared with ^13CD3-CC-11050 and mixed with the standard, quality control, or test samples at 4:1:1 (^13CD3-CC-11050:mouse plasma:Sorenson’s Citrate Buffer, vol/vol/vol) ratio. The mix was centrifuged at 4,000 rpm for 10 min at room temperature, and the supernatant was transferred to a 96-well assay plate. LC-MS/MS was performed using a Sciex API 4000 triple quadrupole mass spectrometer (Sciex, Division of MDS Inc., Canada) coupled to a Shimadzu HPLC system (Shimadzu Scientific Instruments, MD, USA). A Phenomenex Gemini column (5 μm, 2.0 mm × 50 mm; Phenomenex, CA, USA) was used for chromatography with 0.1% formic acid in water (mobile phase A) and 0.1% formic acid in acetonitrile (mobile phase B). The parameters used were 0 min for 10%B, 0.0–2.0 min for 10–75%B, 2.1–3.0 min for 95%B, and 3.05–4.0 min for 10%B. For mass spectrometric detection, a positive ion mode with turbo spray (ion source temperature of 450°C) and a dwell time of 100 ms was used. Analytes were quantified using multiple reactions monitoring (MRM) at the following transitions: mass-to-charge ratio 473.1–178.1 and 477.1–182.1 m/z for CC-11050 and its internal standard, respectively. Peak area ratios of the analyte to its internal standard versus analyte concentration, represented as quadratic regression plots, were derived with 1/x^2 weighting. Watson LIMS™ software was used to determine the pharmacokinetic parameters (Thermo Fisher, PA, USA). Peak plasma concentration (Cmax) and corresponding time (Tmax) were calculated from raw data. Area under the plasma concentration-time curve (AUC) was determined by linear/linear-log trapezoidal rule of non-compartmental model using data from time 0 and the last measurable time point (AUClast). All statistics were performed with Watson LIMS™ software. Plasma concentrations below the limit of quantitation (BLOQ) were treated as 0 for calculation.

[1] = single oral dose 50 mg/kg CC-11050 + 50 mg/kg INH
[2] = single oral dose 50 mg/kg CC-11050 only

SMILES: CCOc1cc([C@@H](CS(C)(=O)=O)N2Cc3cccc(NC(=O)C4CC4)c3C2=O)ccc1OC [CC-11050, N-[2-[(1S)-1-(3-ethoxy-4-methoxyphenyl)-2-(methylsulfonyl)ethyl]-2,3-dihydro-3-oxo-1H-isoindol-4-yl]-(9Cl) cyclopropanecarboxamide]
- AUClast (single oral dose 5 mg/kg): 1,080 ng × h/ml
- AUClast (single oral dose 25 mg/kg): 2,800 ng × h/ml
- AUClast [1]: 13,900 ng × h/ml
- Cmax [1]: 1,610 ng/ml
- Tmax [1]: 5.0 h
- Plasma concentration of CC-11050 (single oral dose 50 mg/kg CC-11050 + 50 mg/kg INH, 1 h): 905.35 ± 594.23 ng/mL
- Plasma concentration of CC-11050 (single oral dose 50 mg/kg CC-11050 + 50 mg/kg INH, 2 h): 1,309.39 ± 214.08 ng/ml
- Plasma concentration of CC-11050 (single oral dose 50 mg/kg CC-11050 + 50 mg/kg INH, 5 h): 1,609.18 ± 167.2 ng/ml
- Plasma concentration of CC-11050 (single oral dose 50 mg/kg CC-11050 + 50 mg/kg INH, 8 h): 1,271.73 ± 249.18 ng/ml
- Plasma concentration of CC-11050 (single oral dose 50 mg/kg CC-11050 + 50 mg/kg INH, 24 h): 4.96 ± 1.85 ng/mL
- AUClast [2]: 10,200 ng × h/ml
- Cmax [2]: 1,410 ng/ml
- Tmax [2]: 2.0 h
- Plasma concentration of CC-11050 (single oral dose 50 mg/kg CC-11050 only, 1 h): 1,331.6 ± 136.97 ng/ml
- Plasma concentration of CC-11050 (single oral dose 50 mg/kg CC-11050 only, 2 h): 1,409.47 ± 140.85 ng/ml
- Plasma concentration of CC-11050 (single oral dose 50 mg/kg CC-11050 only, 5 h): 948.85 ± 128.7 ng/mL
- Plasma concentration of CC-11050 (single oral dose 50 mg/kg CC-11050 only, 8 h): 820.6 ± 265.98 ng/mL
- Plasma concentration of CC-11050 (single oral dose 50 mg/kg CC-11050 only, 24 h): 1.27 ± 1.1 ng/mL
- Time to peak plasma concentration (Tmax) (single oral dose, each of three dose levels 5, 25, 50 mg/kg): 1 to 2 h
